Test results from publication PMC8065974 (Biomedicines, 2021).
Like-named read-outs stand apart in the source and are kept apart here.

Assays:
Type in all cases: in vivo, mice (C57BL/6J)
[1] = tested on: protein carbonyl in obstructed kidney; experiment: Curative treatment in UUO: protein carbonylation (carbonyl ELISA); details: curative: 25 mg/kg, 5 days; vs UUO + vehicle
Protocol: The protein carbonylation was determined as described previously by the carbonyl ELISA assay based on the recognition of protein-bound DNPH in carbonylated proteins with an anti-DNP antibody.

[2] = Plasma and kidney pharmacokinetics after a single oral dose of CA in UUO mice; details: single oral dose of CA 25 mg/kg, 3 days-UUO mice; for Cmax: n = 3/time, read-out: Cmax (peak plasma concentration)
Protocol: For pharmacokinetics study, the animals were submitted to UUO and 3 days later they were fasted overnight and then treated with a single dose of CA (25 mg/kg) or vehicle (n = 3/group). Blood samples (90 µL) were collected at time 0 (before treatment), 30 min, 60 min, 180 min and 360 min post-treatment. CA concentrations were measured by UPLC-HESI-Q-orbitrap (Q Exactive Plus).
To this end, three days after UUO, mice were administrated by oral route a unique dose of CA (25 mg/kg) and then were sacrificed at 30, 60, 180 and 360 min.

[3] = tested on: mRNA of inflammatory, fibrotic and antioxidant genes in obstructed kidney; experiment: Curative treatment in UUO: RT-qPCR of obstructed kidney; details: curative: 25 mg/kg daily gavage from day 3 after UUO for 5 days
Protocol: The unilateral ureteral ligation was performed as previously described. Briefly, under oxygen-isoflurane anesthesia and through a longitudinal, left abdominal incision, the ureter was exposed and ligated with a 6/0 nylon thread at the uretero-pelvic junction. In sham operations, the ureter was exposed but not ligated and repositioned. To reduce pain Buprenorphine (0.01 mg/kg) (Buprecare […], France) was injected i.p before surgery and 12 h later. […] A. borbonica polyphenol extract (25 mg/kg) or CA (25 mg/kg) were resuspended in distilled water just before gavage. The control group received only the vehicle (distilled water). At the end of the different protocols, mice were sacrificed and the kidneys were removed, and a transverse section was fixed in Carnoy's solution for 24 h and subsequently embedded in paraffin for immuno-histological analysis. Several pieces of renal cortex were snap-frozen in liquid nitrogen and stored at -80 °C for mRNA, enzyme activities and MS/MS analysis. Total RNA was isolated from mouse kidneys with TRIzol^TM reagent (Invitrogen). […] The quantitative real-time polymerase chain reaction was performed in a 96 well plate using SYBR green^TM master mix (Eurogentec). Analysis of GAPDH was performed to normalize gene expression and the relative mRNA fold changes between groups were calculated using the 2^-^ΔΔ^Ct method.

[4] = tested on: Mn-SOD, Cu/Zn-SOD, GPX, CAT activities in obstructed kidney; experiment: Curative treatment in UUO: antioxidant enzyme activities in kidney tissue; details: curative: 25 mg/kg, 5 days; vs UUO + vehicle
Protocol: After centrifugation (5000× g[…], for 10 min), the supernatant was used for protein quantification and enzymatic assays. The total protein level of lysate was quantified by the bicinchoninic acid assay (BCA). SOD activity was assayed by monitoring the rate of acetylated cytochrome c reduction by superoxide radicals generated by the xanthine/xanthine oxidase system. Measurements were performed in a reagent buffer (xanthine oxidase, xanthine (0.5 mM), cytochrome c (0.2 mM), KH2PO4 (50 mM), EDTA (2 mM), pH 7.8) at 25 °C. The specific MnSOD activities were determined in the same conditions after incubation of samples with NaCN (1 mM) which inhibits Cu/ZnSOD activities. Assays were monitored by spectrophotometry at 560 nm. SOD activities were calculated using a calibration standard curve of SOD (up to 6 unit/mg). Total SOD, MnSOD and resulting Cu/ZnSOD activities were expressed as international catalytic units per mg of proteins. The total activity of glutathione peroxidase (GPX) was determined with cumene hydroperoxide as substrate. The rate of glutathione oxidized by cumene hydroperoxide (6.5 mM) was evaluated by the decrease in NADPH (0.12 mM in Tris buffer) at 340 nm in the presence of NaCN (10 mM), reduced glutathione (0.25 mM) and glutathione reductase (1 U/mL) in Tris buffer (50 mM, pH 8). GPX activity was expressed as international units per gram of proteins. The catalase (CAT) activity assay was carried out on 40 µg of protein lysate in 25 mM Tris–HCl (pH 7.5). Blanks were measured at 240 nm just before adding 80 µL of H2O2 (10 mM final) to start the reaction. Catalase activity was determined by measuring the absorbance at 240 nm and was calculated using a calibration standard curve of an increasing amount of catalase between 12.5 and 125 unit/mL. Catalase activity was expressed as international catalytic units per mg of proteins.

[5] = tested on: unilateral ureteral obstruction (UUO) mouse model; experiment: Curative treatment in UUO-induced tubulointerstitial fibrosis: immunohistochemistry and Sirius red histology; details: curative: 25 mg/kg daily gavage from day 3 after UUO for 5 days; vs UUO + vehicle; n = 7
Protocol: The unilateral ureteral ligation was performed as previously described. Briefly, under oxygen-isoflurane anesthesia and through a longitudinal, left abdominal incision, the ureter was exposed and ligated with a 6/0 nylon thread at the uretero-pelvic junction. In sham operations, the ureter was exposed but not ligated and repositioned. To reduce pain Buprenorphine (0.01 mg/kg) (Buprecare […], France) was injected i.p before surgery and 12 h later. […] A. borbonica polyphenol extract (25 mg/kg) or CA (25 mg/kg) were resuspended in distilled water just before gavage. The control group received only the vehicle (distilled water). At the end of the different protocols, mice were sacrificed and the kidneys were removed, and a transverse section was fixed in Carnoy's solution for 24 h and subsequently embedded in paraffin for immuno-histological analysis. Several pieces of renal cortex were snap-frozen in liquid nitrogen and stored at -80 °C for mRNA, enzyme activities and MS/MS analysis. Kidneys were fixed in Carnoy's solution, dehydrated and embedded in paraffin. From kidney sections, routine histology and immunohistological staining and analysis were performed as previously described. Three to four μm thickness sections were cut and used for routine staining (hematoxylin-eosin and Sirius red staining) and immunohistochemistry. […] For immunohistochemistry, mouse renal tissue was first de-waxed in toluene and rehydrated through a series of graded ethanol washes before incubation with 3% hydrogen peroxide for 10 min at room temperature to block endogenous peroxidase activity. […] The sections were subsequently stained with the Dako Envision system ([…] (primary antibodies from mouse) and K4002 (primary antibodies from rabbit)) according to manufacturer's instruction. Sections were finally counterstained with hematoxylin. Negative controls for the immunohistochemical procedures included substitution of the primary antibody with nonimmune sera at a similar immunoglobin concentration. […]

[6] = Biodistribution of caffeic acid and ferulic acid after A. borbonica extract (UPLC-MS); details: for concentration at 24 h: C57BL/6J, mouse, oral, 25 mg/kg; for Concentration in urine: urine collected overnight
Protocol: Polyphenolic extract from A. borbonica was prepared by dissolving 1 g of crushed leaves in 25 mL of an aqueous acetonic solution (70%, v/v). After incubation at 4 °C for 90 min, the mixture was centrifuged at 3500× g […] at 4 °C for 20 min and polyphenol-rich supernatant was collected and stored at −80 °C until analysis. Identification of polyphenols was carried out by ultra-high-performance liquid chromatography (UHPLC) coupled with diode array detection and a HESI-Orbitrap mass spectrometer (Q Exactive Plus, Thermo Fisher). A 10 µL sample volume was injected using an UHPLC system equipped with a Thermo Fisher Ultimate 3000 series WPS-3000 RS autosampler and then separated on a PFP column (2.6 μm, 100 mm × 2.1 mm, Phenomenex, Torrance, CA, USA). The column was eluted with a gradient mixture of 0.1% formic acid in water (A) and 0.1% formic acid in acetonitrile (B) at the flow rate of 0.450 mL/min, with 5% B at 0.00 to 0.1 min, 35% B at 0.1 to 7.1 min, 95% B at 7.2 to 7.9 min and 5% B at 8.0 to 10 min. The column temperature was held at 30 °C and the detection wavelengths were set to 280 and 310 nm.
For mass spectrometer conditions, a Heated Electrospray Ionization source II (HESI II) was used. Nitrogen was used as drying gas. The mass spectrometric conditions were optimized as follows: spray voltage = 2.8 kV, capillary temperature = 350 °C, sheath gas flow rate = 60 units, aux gas flow rate = 20 units and S lens RF level = 50. Mass spectra were registered in full scan mode from m/z 100 to 1500 in negative ion mode at a resolving power of 70,000 FWHM at m/z 400. The automatic gain control (AGC) was set at 1e6. The MS/MS spectra were obtained by applying a relatively higher energy collisional dissociation (HCD) energy of 25%.
For biodistribution study, one day before sacrifice animals were placed in metabolic cages to collect urine overnight. CA and its metabolites were measured by UPLC-MS/MS in liver and kidney tissues and urine.

[7] = DESI-HR/MS imaging of obstructed kidney; details: 1 h post oral administration of CA 25 mg/kg, UUO mice
Protocol: The 2D automated Omni Spray Kidney tissues were flash-frozen in nitrogen and stored at −80 °C before DESI-HR/MS imaging. For DESI-MS imaging and histology, 12 μm thickness kidney sections were collected and mounted on SuperFrost™ Plus glass slides.
The 2D automated Omni Spray ion source from Prosolia Inc. (Indianapolis, IN, USA) coupled to a Q-Exactive™ Plus mass spectrometer (Thermo Fisher Scientific, Bremen, Germany) was used to perform the mass spectrometry imaging experiment. A solution of methanol with 0.1% formic acid (HPLC-MS grade, Carlo Erba) was used as the extraction and ionization spray solvent, delivered by a syringe pump at a flow rate of 5 μL/min. All imaging experiments were carried out with the following experimental conditions including source parameters: 2.8 kV capillary voltage, 250 °C capillary temperature, 60% S-lens RF level and 86 psi nitrogen nebulizing gas pressure, and including geometrical parameters: ∼1 mm spray tip-to-surface distance and a spray incident angle of 60°. Mass spectra were registered in full scan mode with the mass spectrometer operating in negative mode. Survey full scan mass spectra were acquired in the 50 to 500 m/z range at resolving power 70,000 (at m/z 400) with an automatic gain control (AGC) target of 3^6 and maximum injection time of 200 ms. […]

[8] = C57BL/6J, mouse, contralateral kidney, read-out: AUC (0-360) in contralateral kidney (converted)
[9] = C57BL/6J, mouse, contralateral kidney, read-out: concentration in contralateral kidney one hour after CA administration
[10] = C57BL/6J, mouse, obstructed kidney, read-out: AUC (0-360) in obstructed kidney (converted)
[11] = C57BL/6J, mouse, obstructed kidney, read-out: concentration in obstructed kidney one hour after CA administration
[12] = C57BL/6J, mouse, plasma, 0 to 360 min, read-out: AUC (0-360) in plasma (converted)
[13] = liver, read-out: Concentration in liver
[14] = UUO mice after ingestion of 25 mg/kg A. borbonica extract (gavage), n = 7, mean ± SD

SMILES | AUC(0-t) [2, 8] | concentration at 1 h [2, 9] | AUC(0-t) [2, 10] | concentration at 1 h [2, 11] | AUC(0-t) [2, 12] | Cmax ([2]; C57BL/6J, mouse, plasma) | tmax ([2]; plasma) | concentration at 24 h [6, 13] | Concentration in urine [6, 14] | further results
O=C(O)/C=C/c1ccc(O)c(O)c1 [Caffeic acid, caffeic acid] | 1.67 µM·h | 0.3 ± 0.1 µM | 14.7 µM·h | 5.3 ± 1.1 µM | 82.7 µM·h | 50.5 µM | 30 min | 0.037 ± 0.001 µM | 96.599 ± 19.704 µM | UUO-induced increase in protein carbonyl level in obstructed kidney [1]: slight decrease in carbonyl level which did not reach statistical significance; tmax ([2]; C57BL/6J, mouse, plasma, po, 25 mg/kg, plasma, read-out: tmax): ≤ 30 min; bioavailability ([2]; C57BL/6J, mouse, plasma, read-out: Bioavailability F): 0.4%; Nrf2 mRNA expression [3]: significant increase; UUO-induced mRNA expression of inflammatory and fibrotic genes (Tgf-β, Tnf-α, Nf-κB, Mcp1, Fn, Col I, Col III) ([3]; vs UUO + vehicle): downregulated; CAT enzyme activity in obstructed kidney [4]: significantly increased; Cu/Zn-SOD enzyme activity in obstructed kidney [4]: significantly increased; GPX enzyme activity in obstructed kidney [4]: not significantly different; extracellular matrix accumulation / renal tubulointerstitial fibrosis (Sirius red staining) [5]: significant protective effect; macrophage infiltration (F4/80 immunostaining) [5]: significant protective effect; myofibroblast appearance/accumulation (α-SMA immunostaining) [5]: significant protective effect; concentration at 24 h ([6]; obstructed kidney, read-out: Concentration in obstructed kidney): 0.144 ± 0.013 µM; Concentration in obstructed kidney ([6]; UUO mice after ingestion of 25 mg/kg A. borbonica extract (gavage), 24 h after administration, n = 7, mean ± SD): 0.144 ± 0.013 µM; Concentration in urine ([6]; UUO mice after ingestion of 25 mg/kg A. borbonica extract (gavage), n = 7, mean ± SD, listed as CA): 96.599 ± 19.704 µM
COc1cc(/C=C/C(=O)O)ccc1O [Ferulic acid, ferulic acid] | 1.64 µM·h | 0.4 ± 0.1 µM | 17.9 µM·h | 4.5 ± 0.8 µM | 77.5 µM·h | 68.3 ± 8.3 µM | same tmax as CA | 0.426 ± 0.099 µM | 38.002 ± 5.021 µM | Concentration in urine ([6]; UUO mice after ingestion of 25 mg/kg A. borbonica extract (gavage), n = 7, mean ± SD, listed as FA): 38.002 ± 5.021 µM; spatial distribution in obstructed kidney (DESI-HR/MS imaging) [7]: in the renal cortex
